Measurements taken from publication PMC12605013, “SAG1.3-derived Frizzled-targeting small-molecule compounds” (The Journal of Biological Chemistry, 2025).

Target: T1, HiBiT-FZD6 (Homo sapiens, UniProt O60353)
T1 construct: expressed in transfected cells; host or cells: HEK293A cells
T1 sequence (O60353 19-706): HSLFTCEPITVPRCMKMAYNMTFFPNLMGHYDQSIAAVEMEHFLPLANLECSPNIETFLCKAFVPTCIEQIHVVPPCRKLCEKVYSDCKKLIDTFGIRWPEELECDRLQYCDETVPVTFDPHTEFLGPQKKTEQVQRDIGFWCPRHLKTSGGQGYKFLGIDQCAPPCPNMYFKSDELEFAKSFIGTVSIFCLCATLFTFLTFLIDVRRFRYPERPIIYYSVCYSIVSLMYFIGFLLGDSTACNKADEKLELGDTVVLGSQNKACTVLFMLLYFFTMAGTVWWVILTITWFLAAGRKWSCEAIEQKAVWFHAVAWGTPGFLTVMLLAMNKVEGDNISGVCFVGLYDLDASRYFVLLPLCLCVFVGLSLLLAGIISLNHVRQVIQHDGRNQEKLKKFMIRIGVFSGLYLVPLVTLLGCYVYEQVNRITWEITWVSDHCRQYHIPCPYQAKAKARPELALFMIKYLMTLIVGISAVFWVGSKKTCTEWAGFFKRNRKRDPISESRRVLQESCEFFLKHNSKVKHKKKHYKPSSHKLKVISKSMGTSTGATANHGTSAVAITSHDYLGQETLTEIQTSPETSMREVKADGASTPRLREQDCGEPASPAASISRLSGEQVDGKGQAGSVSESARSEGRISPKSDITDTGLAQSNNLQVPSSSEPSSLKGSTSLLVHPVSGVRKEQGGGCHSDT
Assay: NanoBiT cell surface expression assay, HiBiT-FZD6
Format: cell-based
Settings: 10 μM, overnight exposure
Experimental: Subsequently, 10 μl of either compound 11 or 26 (DD436001) was added at a final concentration of 10 μM. DMSO was added separately as a control. One day after compound or DMSO addition, cells were washed once with HBSS, and 90 μl of HBSS was added to the wells. To measure cell surface expression, a 1:20 dilution of furimazine live cell substrate and 1:20 LgBiT mix (final dilution = 1:200) were prepared in HBSS and 10 μl was added. The plate was incubated for 30 min to allow for HiBiT–LgBiT complementation, and then luminescence was measured on a TECAN Spark multimode microplate reader between 460 and 500 nm (integration time: 200 ms).
Figure S4. BRET time-course of compound 11 at the FZD5-DEP-Clamp in agonist mode and HiBiT-FZD5/6 surface expression upon compound exposure. (A) Shown is the BRET time-course recorded upon addition of 30 µM compound 11 or vehicle (DMSO). Experiments were performed in HEK293A cells stably expressing the FZD5-DEP-Clamp sensor. […] The timepoint of ligand addition is indicated by a black arrow. (B, C) Impact of compound 11 on FZD cell surface expression. The cell surface pool of transiently-transfected HiBiT-FZD5 (B) and HiBiT-FZD6 (C) was assessed by addition of recombinant LgBiT in combination with detection of NanoBiT luminescence. […]

SMILES: CC(=O)Nc1cccc(C(=O)NC2CCC(N(Cc3cccc(-c4ccncc4)c3)C(=O)c3sc4ccccc4c3Cl)CC2)c1 (stereo not shown) [compound 11, N-((1r,4r)-4-(3-Acetamidobenzamido)cyclohexyl)-3-chloro-N-(3-(pyridin-4-yl)benzyl)benzo[b]thiophene-2-carboxamide]
- Effect on surface levels of HiBiT-FZD6: had no effect
